One test relates to Hep G2. The test is described as follows: Hep G2 in-vitro cytotoxicity assay. The conditions noted are these: Homo sapiens, HepG2, read-out: Hs HEPG2 pEC50 (converted). Format: cell-based. An excerpt: In-vitro cytotoxicity studies can be carried out using Hep G2 (Human hepatocyte carcinoma, HPACC cat. no. 85011430) used as indicators for general mammalian cell toxicity. Hep G2 in-vitro cytotoxicity can be assessed using the assay procedure as described in “Use of a human-derived liver cell line for the detection of cytoprotective, antigenotoxic and cogenotoxic agents”, Volker Mersch-Sundermann, Siegfried Knasmüller, Xin-jiang Wu, Firouz Darroudi, Fekadu Kassie. J. Tox 198 (2004) 329-340) the contents of which are incorporated herein by reference.

Test [1] addresses T1, Plasmodium falciparum lysyl t-RNA synthetase (Pf-KRS1) (Plasmodium falciparum, UniProt Q8IDJ8).
T1 construct: Pf KRS1-; made in house; host or cells: E. coli BL21 (DE3)
Description: Pf-KRS1 inhibition biochemical assay (Kinase-Glo, ATP depletion). The note with it: read-out: Pf-KRS pIC50 (converted). An excerpt: Plasmodium falciparum Lysine tRNA Synthetase (KRS1) Biochemical Assay Methodology.
Lysine tRNA Synthetase (KRS1) is an enzyme which catalyses the esterification of L-Lysine to the appropriate transfer ribonucleic acid (tRNA), to form an aminoacyl-tRNA. Once the tRNA is charged, a ribosome transfers the amino acid from the tRNA onto a growing peptide, according to the genetic code.
The substrates of this reaction are L-lysine, and adenosine triphosphate (ATP), the overall reaction is: amino acid+tRNA+ATP→aminoacyl-tRNA+AMP+PPi
In this overall reaction AMP is adenosine monophosphate and PP; is inorganic pyrophosphate. The reaction progression in a biochemical assay can be tracked by the depletion of one of the substrates, in the case of this invention, ATP. This was done using the proprietary assay kit, Kinase Glo® Assay which is a luminescent kinase assay platform suitable for monitoring kinase activities using up to 10 μm ATP which is commercially available from the Promega Corporation of Madison, Wis., USA. The Kinase-Glo® Assay was performed in a single well of a multiwell plate by adding a volume of Kinase-Glo® Reagent equal to the volume of a completed kinase reaction and measuring luminescence. The resulting luminescent signal is correlated with the amount of ATP present and is inversely correlated with the amount of kinase activity. As such by use of this assay methodology a reduction of the luminescent signal is relative to the reduction in ATP as the reaction progresses. A compound which inhibits the action of KRS will show no drop in the luminescent signal from assay controls.
Assays were performed using both Plasmodium falciparum and human KRS to assess any selectivity of various test compounds.
Test compounds were solubilized in DMSO at a top concentration of 10 mM and serially diluted 1 in 3 to achieve a range of final assay concentrations of 50 μM to 2.5 nM in 10 μl reaction volume.
KRS was diluted to a working concentration of 75 nM in assay buffer (25 mM HEPES, 25 mM KOH, 10 mM MgCl2.6H2O, 50 mM KCl), and the following ‘Master Mix’ prepared in assay buffer: 0.1 mg/ml BSA, 250 μM DTT, 200 μM Spermine, 0.05% NP-40, ATP 3 μM for Pf KRS1 (4 μM for Hs KRS1), 0.4 mg/ml tRNA from Yeast, 60 μM L-Lysine, 0.5 U/ml Pyrophosphatase.
Plates were incubated at room temperature for 5 h for Pf KRS (2.5 hrs for HsKRS), then the assay stopped by the addition of 10 μl of The Kinase-Glo® Reagent Assay was performed in a single well of a multiwell plate by adding a volume of Kinase-Glo® Reagent which is commercially available from the Promega Corporation of Madison, Wis., USA. The plates were incubated in the dark for a further 15 mins before being read for luminescence on a BMG PHERAstar® FSX plate reader which is a multi-mode reader for use in high-throughput screening available from BMG Labtech if Cary, N.C., USA. Data were analysed by calculating the percentage inhibition compared to the maximum and minimum assay controls. Concentration effect curves were fitted using nonlinear regression within ActivityBase and IC50 values were determined using standard protocols.
Background: Kinase-Glo measures the ATP left after a reaction by luminescence.

The test system of the next test is Cryptosporidium parvum. Description: In vitro Crytosporidium inhibition assay. Format: cell-based. The note with it: Cryptosporidium parvum; read-out: Cryptosporidium parvum pEC50 (converted). An excerpt:
Assay Method for Measurement of In Vitro Inhibition of Crytosporidium.
These experiments were run in accordance with the method of Besssoff et. al. Antimicrob. Agents Chemother. 2013, 57:1804-1814. Results from these experiments are provided in the Experimental Results hereinafter.

Test [2] has as its system Plasmodium falciparum strain 3D7. Description: Plasmodium falciparum 3D7 in vitro growth inhibition (SYBRgreen I). Format: cell-based. The note with it: for EC50: Plasmodium falciparum, 3D7, read-out: pEC50 for Pf 3D7 (converted). As to the method:
Parasite Cultures and Cytotoxicity Assay Methodology for Plasmodium falciparum. […] Growth inhibition of the Plasmodium falciparum cultures was quantified in a 10-point dose response curve with a 1 in 3 dilution series from a top assay concentration of 50 μM. This 384 well plate based fluorescence assay utilises the binding of SYBRgreen I (Thermo Fisher Scientific/Invitrogen cat. no. S7585) to double stranded DNA, which greatly increases the fluorescent signal at 528 nm after excitation at 485 nm. Mefloquine was used as a drug control to monitor the quality of the assay (Z′=0.6 to 0.8, where Z′ is a measure of the discrimination between the positive and negative controls on a screen plate). Dose-response curves were determined from a minimum of 3 independent experiments. Compound bioactivity was expressed as EC50, the effective concentration of compound causing 50% parasite death.

Molecules are shown by their SMILES. Where “and” joins values, the source holds several entries; their conditions need not be identical. Identical values can stand only once.

T1 sequence (Q8IDJ8 entry or part of it, looked up, natural form): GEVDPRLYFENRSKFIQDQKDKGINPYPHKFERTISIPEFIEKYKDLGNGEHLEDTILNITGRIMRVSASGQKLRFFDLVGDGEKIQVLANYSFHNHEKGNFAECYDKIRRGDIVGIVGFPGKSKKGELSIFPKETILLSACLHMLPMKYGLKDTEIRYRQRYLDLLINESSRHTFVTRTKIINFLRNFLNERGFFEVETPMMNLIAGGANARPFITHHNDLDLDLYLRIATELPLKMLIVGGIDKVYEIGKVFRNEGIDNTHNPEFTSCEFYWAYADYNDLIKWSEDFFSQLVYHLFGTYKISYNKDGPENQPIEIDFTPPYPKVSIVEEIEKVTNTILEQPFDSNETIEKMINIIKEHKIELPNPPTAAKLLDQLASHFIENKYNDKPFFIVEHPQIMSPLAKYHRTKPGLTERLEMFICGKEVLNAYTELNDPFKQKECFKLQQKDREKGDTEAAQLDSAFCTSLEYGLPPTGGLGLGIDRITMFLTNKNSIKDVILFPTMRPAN

`O=C(NCC1CCC(F)(F)CC1)c1cc(=O)c2ccc(F)c(O)c2o1` [Example 79, N-((4,4-difluorocyclohexyl)methyl)-7-fluoro-8-hydroxy-4-oxo-4H-chromene-2-carboxamide]: the EC50 with Hep G2 was 50.1 µM; in the test with Cryptosporidium parvum, 0.794 µM. The IC50 in test [1] is 0.2 µM.
`O=C(NCC1(O)CCCCC1)c1cc(=O)c2cc(F)ccc2o1` [Example 41, 6-fluoro-N-[(1-hydroxycyclohexyl)methyl]-4-oxo-chromene-2-carboxamide]: the EC50 in the test on Hep G2 was 25.1 µM; in test [2] it was 0.2 µM; in the test with Cryptosporidium parvum, 0.501 µM. The IC50 in test [1] is 0.1 µM.
`Nc1cc(F)cc2c(=O)cc(C(=O)NCC3(O)CCC(F)(F)CC3)oc12` [Example 93, 8-amino-N-[(4,4-difluoro-1-hydroxy-cyclohexyl)methyl]-6-fluoro-4-oxo-chromene-2-carboxamide]: the results for the EC50 in the test with Hep G2 and with Cryptosporidium parvum were 12.6 µM and 0.501 µM, respectively. In addition, the IC50 in test [1] was 0.0501 µM and 0.0631 µM.
As for `O=C(NCC1(CO)CCCCC1)c1cc(=O)c2cc(F)ccc2o1` [Example 40, 6-fluoro-N-[[1-(hydroxymethyl)cyclohexyl]methyl]-4-oxo-chromene-2-carboxamide], the EC50 with Hep G2 is 50.1 µM; in test [2], 0.794 µM; in the test on Cryptosporidium parvum, 1.58 µM. In test [1], the IC50 was 0.251 µM.
With `O=C(NCC1(O)CCCCC1)c1cc(=O)c2cc(Cl)cc(O)c2o1` [Example 73, 6-Chloro-8-hydroxy-N-((1-hydroxycyclohexyl)methyl)-4-oxo-4H-chromene-2-carboxamide], the EC50 in the test with Hep G2 is 20 µM; in the test on Cryptosporidium parvum it was 0.0398 µM. Moreover, in test [1], the IC50 is 0.0501 µM.
On to `O=C(NCC1(O)CC2(CCC2)C1)c1cc(=O)c2cc(F)cc(O)c2o1` [Example 76D, 6-fluoro-8-hydroxy-N-((2-hydroxyspiro[3.3]heptan-2-yl)methyl)-4-oxo-4H-chromene-2-carboxamide], for which the EC50 in the test with Hep G2 is 50.1 µM; in test [2], 0.398 µM; in the test with Cryptosporidium parvum, 3.98 µM. In addition, in test [1], the IC50 was 0.126 µM.
`O=C(NCCCC1CCC1)c1cc(=O)c2cc(F)cc(O)c2o1` [Example 76G, N-(3-cyclobutylpropyl)-6-fluoro-8-hydroxy-4-oxo-4H-chromene-2-carboxamide]: the results for the EC50 (with Hep G2; in test [2]; in the test on Cryptosporidium parvum) were 31.6 µM, 1.58 µM and 1.26 µM, respectively. Also, in test [1], the IC50 was 0.126 µM.
Turning to `O=C(NCC1CCCCC1)c1cc(=O)c2ccc(O)cc2o1` [Example 4, N-(cyclohexylmethyl)-7-hydroxy-4-oxo-chromene-2-carboxamide], the EC50 in the test on Hep G2 is 50.1 µM; in test [2] it was 1.26 µM; in the test with Cryptosporidium parvum, 1.58 µM. In addition, the IC50 in test [1] is 1 µM.
With `O=C(NCC1(O)CCC(F)(F)CC1)c1cc(=O)c2cc(F)cc(F)c2o1` [Example 56, N-((4,4-difluoro-1-hydroxycyclohexyl)methyl)-6,8-difluoro-4-oxo-4H-chromene-2-carboxamide], the IC50 in test [1] was 0.316 µM. Also, the EC50 was 1.58 µM in test [2] and 7.94 µM with Cryptosporidium parvum.
`O=C(NCC1CCCCC1)c1cc(=O)c2ccc(Cl)cc2o1` [Example 9, 7-chloro-N-(cyclohexylmethyl)-4-oxo-chromene-2-carboxamide]: the IC50 in test [1] was 0.2 µM. The EC50 in test [2] was 1.58 µM; in the test with Cryptosporidium parvum it was 3.55 µM.
Regarding `O=C(NCC1CCC(F)(F)CC1)c1cc(=O)c2cc(F)cc(O)c2o1` [Example 75, N-((4,4-difluorocyclohexyl)methyl)-6-fluoro-8-hydroxy-4-oxo-4H-chromene-2-carboxamide], the EC50 with Hep G2 is 50.1 µM; in test [2], 0.2 µM; with Cryptosporidium parvum, 0.794 µM. In addition, in test [1], the IC50 was 0.0794 µM.
On the same counts, the results for `O=C(NCC1(O)CCCCC1)c1cc(=O)c2ccccc2o1` [Example 27, N-[(1-hydroxycyclohexyl)methyl]-4-oxo-chromene-2-carboxamide] are 50.1 µM, 0.251 µM, 0.316 µM and 0.126 µM.
`O=C(O)CC1(CNC(=O)c2cc(=O)c3cc(F)ccc3o2)CCCCC1` [Example 57L, 2-(1-((6-fluoro-4-oxo-4H-chromene-2-carboxamido)methyl)cyclohexyl)acetic acid]: the EC50 was 50.1 µM in the test with Hep G2, 0.794 µM in test [2] and 5.01 µM in the test on Cryptosporidium parvum.
In the case of `O=C(NCC1CCCCC1)c1cc(=O)c2cccc(O)c2o1` [Example 67, N-(cyclohexylmethyl)-8-hydroxy-4-oxo-4H-chromene-2-carboxamide], the IC50 in test [1] is 0.0631 µM. Further, the EC50 in test [2] is 0.0631 µM; in the test with Cryptosporidium parvum, 0.316 µM.
Take `O=C(NCC1CC2CCC1C2)c1cc(=O)c2cc(F)ccc2o1` (stereo not shown) [Example 36, 6-fluoro-N-(norbornan-2-ylmethyl)-4-oxo-chromene-2-carboxamide]: the IC50 in test [1] was 0.126 µM. Moreover, the EC50 was 0.794 µM in test [2] and 1.26 µM in the test on Cryptosporidium parvum.
In the case of `COc1cc2c(=O)cc(C(=O)NCC3CCCCC3)oc2cc1F` [Example 71, N-(cyclohexylmethyl)-7-fluoro-6-methoxy-4-oxo-4H-chromene-2-carboxamide], the IC50 in test [1] is 0.398 µM. Moreover, the figures for the EC50 (in test [2]; in the test with Cryptosporidium parvum) were 3.16 µM and 3.98 µM, respectively.
Consider `O=C(NCCC1CCCC1)c1cc(=O)c2ccccc2o1` [Example 26, N-(2-cyclopentylethyl)-4-oxo-chromene-2-carboxamide], for which the IC50 in test [1] is 0.501 µM. For the same molecule, the EC50 in test [2] is 6.31 µM; in the test with Cryptosporidium parvum it was 10 µM.
Turning to `O=C(NCC1CCCCC1)c1cc(=O)c2ccc(F)cc2o1` [Example 42, N-(cyclohexylmethyl)-7-fluoro-4-oxo-chromene-2-carboxamide], the IC50 in test [1] is 0.2 µM. Also, the EC50 in test [2] is 0.794 µM; in the test on Cryptosporidium parvum, 1.26 µM.
For the molecule `Cc1c(C(=O)NCC2CCCCC2)oc2ccc(F)cc2c1=O` [Example 91, N-(cyclohexylmethyl)-6-fluoro-3-methyl-4-oxo-4H-chromene-2-carboxamide], the IC50 in test [1] was 0.631 µM. Besides, in test [2], the “pEC50 for Pf 3D7” value is 5.2 and the EC50 was 5.01 µM. Moreover, the EC50 in the test with Cryptosporidium parvum was 2.51 µM.
On to `C[C@H](NC(=O)c1cc(=O)c2cc(F)ccc2o1)C1CCCCC1` [Example 49A, (S)—N-(1-cyclohexylethyl)-6-fluoro-4-oxo-4H-chromene-2-carboxamide], for which, in test [1], the IC50 is 0.126 µM. The results for the EC50 (in test [2]; with Cryptosporidium parvum) were 0.398 µM and 0.158 µM, respectively.
Take `O=C(NCC1CCC(F)(F)CC1)c1cc(=O)c2ccccc2o1` [Example 21, N-[(4,4-difluorocyclohexyl)methyl]-4-oxo-chromene-2-carboxamide]: the EC50 in the test with Hep G2 is 50.1 µM; in the test on Cryptosporidium parvum, 7.94 µM.

The values are drawn from US11485720B2, “Anti-infective agents” (University of Dundee, priority 2016, dated 2022).
